# Laboratory results published in patent publication US20210113501A1, “METHOD OF ADMINISTERING BETA-HYDROXY-BETA-METHYLBUTYRATE (HMB)” (Metabolic Technologies, Inc., priority 2009, published 2021).
# Experiment: Study 1 blood chemistry
# Assay type: in vivo, human
# Details: for Gamma-glutamyl: in U/L (unit assumed)
# Protocol: Study 1 design. For study 1 the subjects reported to the laboratory in the morning following an overnight fast. Before ingestion of one of the supplemental treatments, a flexible sterile polyethylene catheter was inserted into a forearm vein using sterile procedures and a pre-ingestion blood sample was drawn. Subsequent blood samples were taken at 0, 2, 5, 10, 15, 25, 35, 45, 60, 90, 120 and 180 min after ingestion of the treatment. Plasma was separated and samples were stored frozen at −70° C. for analysis of HMB concentration. In addition, a portion of the pre-ingestion and 180 minute blood samples were used for measurements (LabCorp, Kansas City, Mo.) of glucose, uric acid, blood urea nitrogen (BUN), creatinine, sodium, potassium, chloride, carbon dioxide, phosphorous, protein, albumin, globulin, albumin:globulin ratio, total bilirubin, direct bilirubin, alkaline phosphatase, lactate dehydrogenase, aspartate aminotransferase (AST), alanine aminotransferase (ALT), gamma-glutamyl transpeptidase (GGT), iron binding capacity (TIBC), unsaturated iron binding capacity (UIBC), iron, iron saturation, total cholesterol, triglycerides, high density lipoprotein (HDL), low density lipoprotein (LDL), and cholesterol ratio. A complete blood count (CBC) was also performed before and after the 180 min treatment period. Subjects also completed a brief questionnaire to report any physical symptoms (such as nausea, headache, etc) they may have experienced during the experiment.
# The data were analyzed using a crossover design with Proc GLM in SAS. (45) For the timed sampling of plasma HMB a repeated measures polynomial model was used. The model included subject, order, and treatment main effects and time by treatment interaction where appropriate. For other parameters Proc GLM was also used with subject, order, and treatment main effects and the p values are reported for the treatment main effect. Statistical significance was determined for p<0.05 and a trend was determined for 0.05<p<0.10.
# [1] = After (180 min), listed as Free Acid Gel Sublingual
# [2] = Before to After, listed as Free Acid Gel Sublingual
# [3] = Before, listed as Free Acid Gel Sublingual
structure (smiles),measurement,setting,value
"CC(C)(O)CC(=O)O [HMB-Acid Gel Sublingual, 3-hydroxy-3-methylbutyric acid]",Albumin,After (180 min),4.1 ± 0.2 g/dL
same,Direct Bilirubin,After (180 min),0.1 ± 0.01 mg/dL
same,Iron Saturation,After (180 min),30.9 ± 8.5%
same,A:G Ratio,[1],1.8 ± 0.1
same,Alanine Aminotransferase,[1],17.3 ± 2.7 IU/L
same,Alkaline Phosphatase,[1],66.8 ± 6.8 IU/L
same,Aspartate Aminotransferase,[1],28.3 ± 8.2 IU/L
same,Blood Urea Nitrogen,[1],12.9 ± 0.8 mg/dL
same,CO2,[1],24.3 ± 0.6 mEq/L
same,Chloride,[1],102.4 ± 1.1 mEq/L
same,Cholesterol Ratio,[1],3.3 ± 0.2
same,Creatinine,[1],1.0 ± 0.04 mg/dL
same,Globulin,[1],2.3 ± 0.1 g/dL
same,Glucose,[1],77.4 ± 2.5 mg/dL
same,HDL,[1],49.3 ± 4.3 mg/dL
same,Iron,[1],94.6 ± 16.6 µg/dL
same,Iron Binding Capacity,[1],339.5 ± 30.8 µg/dL
same,LDL,[1],89.4 ± 4.9 mg/dL
same,Lactate Dehydrogenase,[1],167.3 ± 12.2 IU/L
same,Phosphorus,[1],3.5 ± 0.2 mg/dL
same,Potassium,[1],4.5 ± 0.1 mEq/L
same,Protein,[1],6.4 ± 0.2 g/dL
same,Sodium,[1],137.8 ± 0.9 mEq/L
same,Total Bilirubin,[1],0.5 ± 0.05 mg/dL
same,Total Cholesterol,[1],155.5 ± 5.8 mg/dL
same,Triglycerides,[1],83.8 ± 15.8 mg/dL
same,UIBC,[1],244.9 ± 39.5 µg/dL
same,Uric Acid,[1],4.0 ± 0.5 mg/dL
same,Gamma-glutamyl,[1],13.4 ± 1.2
same,A:G Ratio,Before,1.9 ± 0.1
same,Creatinine,Before,1.0 ± 0.1 mg/dL
same,Direct Bilirubin,Before,0.1 ± 0.01 mg/dL
same,Total Bilirubin,Before,0.4 ± 0.05 mg/dL
same,A:G Ratio % Change,[2],−2.0%
same,Alanine Aminotransferase % Change,[2],−0.7%
same,Albumin % Change,[2],1.5%
same,Alkaline Phosphatase % Change,[2],1.1%
same,Aspartate Aminotransferase % Change,[2],0.9%
same,Blood Urea Nitrogen % Change,[2],−10.4%
same,CO2 % Change,[2],1.0%
same,Chloride % Change,[2],−0.5%
same,Cholesterol Ratio % Change,[2],−0.4%
same,Creatinine % Change,[2],−1.5%
same,Direct Bilirubin % Change,[2],8.6%
same,Gamma-glutamyl % Change,[2],0.9%
same,Globulin % Change,[2],1.6%
same,Glucose % Change,[2],4.4%
same,HDL % Change,[2],1.3%
same,Iron % Change,[2],13.7%
same,Iron Binding Capacity % Change,[2],3.5%
same,Iron Saturation % Change,[2],6.0%
same,LDL % Change,[2],2.1%
same,Lactate Dehydrogenase % Change,[2],1.5%
same,Phosphorus % Change,[2],−13.2%
same,Potassium % Change,[2],10.6%
same,Protein % Change,[2],1.6%
same,Sodium % Change,[2],−1.1%
same,Total Bilirubin % Change,[2],22.6%
same,Total Cholesterol % Change,[2],0.7%
same,Triglycerides % Change,[2],−8.7%
same,UIBC % Change,[2],0.1%
same,Uric Acid % Change,[2],−2.2%
same,Alanine Aminotransferase,[3],17.4 ± 2.7 IU/L
same,Albumin,[3],4.1 ± 0.1 g/dL
same,Alkaline Phosphatase,[3],66.0 ± 6.3 IU/L
same,Aspartate Aminotransferase,[3],28.0 ± 7.9 IU/L
same,Blood Urea Nitrogen,[3],14.4 ± 0.8 mg/dL
same,CO2,[3],24.0 ± 0.5 mEq/L
same,Chloride,[3],102.9 ± 0.6 mEq/L
same,Cholesterol Ratio,[3],3.3 ± 0.2
same,Globulin,[3],2.3 ± 0.2 g/dL
same,Glucose,[3],74.1 ± 1.7 mg/dL
same,HDL,[3],48.6 ± 4.6 mg/dL
same,Iron,[3],83.3 ± 16.4 µg/dL
same,Iron Binding Capacity,[3],328.0 ± 32.8 µg/dL
same,Iron Saturation,[3],29.1 ± 9.0%
same,LDL,[3],87.5 ± 5.7 mg/dL
same,Lactate Dehydrogenase,[3],164.8 ± 12.5 IU/L
same,Phosphorus,[3],4.1 ± 0.05 mg/dL
same,Potassium,[3],4.0 ± 0.03 mEq/L
same,Protein,[3],6.3 ± 0.2 g/dL
same,Sodium,[3],139.3 ± 0.8 mEq/L
same,Total Cholesterol,[3],154.4 ± 6.9 mg/dL
same,Triglycerides,[3],91.8 ± 16.1 mg/dL
same,UIBC,[3],244.8 ± 42.3 µg/dL
same,Uric Acid,[3],4.0 ± 0.4 mg/dL
same,Gamma-glutamyl,[3],13.3 ± 1.2
